Laboratory results from patent publication US20070203202A1, “Methods of reducing adverse events associated with pirfenidone therapy” (priority 2005, published 2007).
Read-outs that look alike come from different tables or passages of the source.

Experiments:
[1] = Single-dose four-treatment crossover study of the effect of food and antacid on adverse events; format: in vivo, human; details: for subjects who experienced an adverse event: single oral dose 3×267 mg, 16 healthy adults
Experimental: (§1) A study was designed to evaluate the effect of food, antacids, and food taken with antacids on adverse events associated with pirfenidone use. The trial was conducted as a randomized, open-label, four-treatment crossover, with a single dose for each treatment period and a 2-day washout period between study treatments. 16 healthy adults between the ages of 50 and 79 years having body mass indices between 18 and 30 (inclusive) were enrolled and completed all 4 treatment arms. The treatment arms were as follows:
A) pirfenidone alone (Fasted);
B) pirfenidone within 1 minute following a dose of antacid (20 mL Mylanta® Maximum Strength Liquid) (Fasted+Antacid);
C) pirfenidone 5 minutes after completing a standard meal (Fed); and
D) pirfenidone 5 minutes after completing a standard meal, then within 1 minute, followed by a dose of antacid (Fed+Antacid).
(§2) All subjects were admitted to the clinic for clinical evaluation the day prior to receiving the first dose of the study medication and remained confined for 13 days. Following an overnight fast of at least 10 hours (h), subjects were randomized to one of the above-described 4 treatment sequences. Each dose of pirfenidone (3×267 mg capsules) was administered orally with 240 mL room temperature water on days 1, 4, 7, and 10 in the morning, following an overnight fast of at least 10 hours. The washout period between treatments was 2 days. A standard meal consisted of 2 fried eggs, 2 strips of bacon, 2 slices of toast, 2 pats of butter, hash brown potatoes (4 oz), and whole milk (8 oz).
On each study day, adverse events were reviewed with the patients as follows. Before administration of the first dose of the study drug, study site personnel noted the occurrence and nature of each subject's medical condition(s). During the trial, site personnel again noted any change in the condition(s) or occurrence and nature of any adverse events. The severity of adverse events were graded based on the Modified Common Toxicity Criteria and the relationship of the study drug to the adverse event determined.

[2] = Pharmacokinetics of an 801 mg pirfenidone dose taken with or without food; format: in vivo, human; details: for half-life: human, plasma, oral, 801 mg, read-out: mean absorption half life (converted)
Experimental: as §1, §2
Of 7 subjects who reported nausea, 5 of 16 (31%) were fasted compared to only 2 of 16 (13%) fed subjects. Of 5 subjects reporting dizziness, 4 of 16 (25%) were fasted, while only 1 of 16 (6%) was fed. Of 3 subjects reporting somnolence, 2 of 16 (13%) were fasted and 1 of 16 (6%) were fed. Of 3 subjects reporting headaches, 2 of 16 (13%) were fasted and 1 of 16 (6%) were fed.

[3] = Multiple-dose escalating-dose study of adverse events, doses taken with food; format: in vivo, human; details: 801 to 4005 mg/day escalating
Experimental: A second study was designed to examine incidences of adverse events on multiple ascending daily doses of pirfenidone. The trial was conducted as an open-label, escalating-dose study with no washout period between dose escalations. 25 healthy adults between the ages of 45 and 79 (inclusive) having body mass indices between 18 and 30 (inclusive) were enrolled. 22 adults completed the treatment. Each volunteer received from 801 mg/day to 4005 mg/day of pirfenidone divided into three equal doses as follows:
All subjects were admitted to the clinic for clinical evaluation the day before the first dose of study medication and remained confined for 17 days. Each subject received all dose levels of the study drug unless adverse events or the clinical judgment of the trial physician precluded the continuation of treatment. All doses were taken with 240 mL room temperature water and with food (excluding grapefruit juice). TID doses times were ˜0800, ˜1200, and ˜1800.

[4] = test system: fibrogenic cytokines such as TGF-β1, bFGF, PDGF, and EGF; details: Zhang S et al. 1998; cited from earlier work
TNF-α = details: macrophages and other cells; Cain et al. 1998; cited from earlier work
[5] = 801 mg pirfenidone without food

mean maximum plasma concentration ([2]; 801 mg pirfenidone with food): 7874 ng/mL | mean maximum plasma concentration [2, 5]: 15724 ng/mL | half-life ([2]; 801 mg pirfenidone with food): 1.78 h | half-life [2, 5]: 0.572 h
Compound: Cc1ccc(=O)n(-c2ccccc2)c1 [pirfenidone, 5-methyl-1-phenyl-2-(1H)-pyridone]
incidence of somnolence ([1]; all arms, 4 of 16): 25% | incidence of dizziness ([1]; all arms, 6 of 16): 38% | incidence of nausea ([1]; all arms, 7 of 16): 44% | subjects with adverse events in whom the adverse events were mild ([1]; all arms, 8 of the 12 subjects with an adverse event): 66.7% | subjects with at least 1 adverse event in total ([1]; all four treatment arms, 12 of 16 subjects): 75% | incidence of headaches ([1]; fasted, 2 of 16): 13% | incidence of somnolence ([1]; fasted, 2 of 16): 13% | incidence of dizziness ([1]; fasted, 4 of 16): 25% | incidence of nausea ([1]; fasted, 5 of 16): 31% | incidence of dizziness ([1]; fed, 1 of 16): 6% | incidence of headaches ([1]; fed, 1 of 16): 6% | incidence of somnolence ([1]; fed, 1 of 16): 6% | incidence of nausea ([1]; fed, 2 of 16): 13% | subjects who experienced an adverse event ([1]; pirfenidone alone without food (Fasted)): 56.3% | subjects who experienced an adverse event ([1]; with food (Fed)): 31.3% | subjects who experienced an adverse event ([1]; with food and antacid (Fed+Antacid)): 25% | subjects who experienced an adverse event ([1]; within 1 minute following a dose of antacid (Fasted+Antacid)): 56.3% | subjects with at least one adverse event ([3]; TID with food, 23 of 25 healthy adults): 92% | incidence of headache ([3]; with food, 7 of 25): 28% | incidence of somnolence ([3]; with food, 8 of 25): 32% | incidence of nausea ([3]; with food, 9 of 25): 36% | subjects with adverse events in whom the adverse events were mild ([3]; with food, 22 of the 23 subjects): 95% | effect on biosynthesis or release of fibrogenic cytokines [4]: inhibits excessive biosynthesis or release | effect on synthesis and release of TNF-α (TNF-α): blocks the synthesis and release of excessive amounts of TNF-α
